# Calls of active or inactive are those of the source. The rule behind the calls is not given here.
# Key:
# [1] = (§1) Cytotoxicity against human TCT1 cells after 48 hrs by calcein-AM dye based fluorescence assay; assay type: functional, cell-based; details: TCT1, 48 h
# Bacillus subtilis = assay: Antibacterial activity against Bacillus subtilis; assay type: functional
# TCT1 = assay: as §1; assay type: functional, cell-based
Molecule,IC50 [1] [µM],MIC (Bacillus subtilis),Activity (TCT1),Cytotoxicity (TCT1)
CC(=O)O[C@H]1C(=O)[C@@]2(C)[C@H]([C@H](OC(=O)c3ccccc3)[C@]3(O)C[C@H](OC(=O)[C@H](O)[C@@H](NC(=O)c4ccccc4)c4ccccc4)C(C)=C1C3(C)C)[C@]1(OC(C)=O)CO[C@@H]1C[C@@H]2O [PACLITAXEL],0.0025,–,–,–
CCC[C@H]1O[C@H](C(O)C(N)=O)C[C@]23O[C@]12C(=O)c1c(O)cc(OC)cc1C3=O (stereo partly drawn),–,7 µg/mL,inactive,–
CCC[C@H]1O[C@H](CC(N)=O)C[C@]2(S[C@]34C[C@@H](CC(N)=O)O[C@H](CCC)[C@]3(O)C(=O)c3c(O)cc(OC)cc3C4=O)C(=O)c3cc(OC)cc(O)c3C(=O)[C@@]12O,–,inactive,–,Active
GENTAMICIN,–,0.125 µg/mL,–,–
COC(=O)CC1CC2(SC34CC(CC(=O)OC)OC(C)C3(O)C(=O)c3c(O)cccc3C4=O)C(=O)c3cccc(O)c3C(=O)C2(O)C(C)O1 (stereo not drawn),6.4,–,–,–
COC(=O)CC1CC2(SC34CC(CCO)OC(C)C3(O)C(=O)c3c(O)cccc3C4=O)C(=O)c3cccc(O)c3C(=O)C2(O)C(C)O1 (stereo not drawn),6.4,–,–,–
CCC[C@H]1O[C@H](CC(N)=O)C[C@]2(O)C(=O)c3cc(OC)cc(O)c3C(=O)[C@@]12O,–,28 µg/mL,inactive,–
CCC[C@H]1O[C@H](CC(N)=O)C[C@]23O[C@]12C(=O)c1c(O)cc(OC)cc1C3=O,–,7 µg/mL,inactive,–
CC[C@H]1OC(=O)[C@H](C)[C@@H](O[C@H]2C[C@@](C)(OC)[C@@H](O)[C@H](C)O2)[C@H](C)[C@@H](O[C@@H]2O[C@H](C)C[C@H](N(C)C)[C@H]2O)[C@](C)(O)C[C@@H](C)C(=O)[C@H](C)[C@@H](O)[C@]1(C)O [ERYTHROMYCIN],–,0.125 µg/mL,–,–

# Reference: ChEMBL document CHEMBL3352805, “Structure and Stereochemical Determination of Hypogeamicins from a Cave-Derived Actinomycete” (J Nat Prod, 2014)
